Measured values reported in the supplement of paper PMC4862054.

What was measured:
DU-4475 [1] = assay: normalised viability (% of control), CellTiter-Blue; higher = more viable cells (about 100 = DMSO control); conditions: incubation time: 72 h
Protocol: (§1)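 DSRT, CellTiter-Blue viability, 72 h incubation. Signal is normalised to DMSO and benzethonium chloride controls. Value is the normalised response at dose 9.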

MDA-MB-453 [2] = assay: as above; conditions: incubation time: 72 h
Protocol: as §1

CAL-120 = assay: normalised response (% of control), CellTiter-Glo; higher = more viable cells (100 = DMSO, 0 = benzethonium chloride kill control); conditions: incubation time: 72 h
How it was run: (§2)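 In 384-well plates holding compound at 5 concentrations in 10-fold steps over a 10,000-fold range specific to each compound, breast cancer cell lines were seeded as 20 µl suspension and incubated 72 h. CellTox Green fluorescence was measured at 485/520 nm, after which CellTiter-Glo luminescence was measured following 10 min at room temperature. Plate signals were normalised to 0.1 % DMSO (100) and a positive kill control (0), and each value is the normalised signal at a single concentration.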

Hs578T = assay: as above; conditions: incubation time: 72 h
How it was run: as §2

HCC1143 = assay: as above; conditions: incubation time: 72 h
How it was run: as §2

HDQ-P1 = assay: as above; conditions: incubation time: 72 h
How it was run: as §2

DU-4475 [3] = assay: as above; conditions: incubation time: 72 h
How it was run: as §2

BT-474 [4] = assay: as above; conditions: incubation time: 72 h
How it was run: as §2

CAL-85-1 = assay: as above; conditions: incubation time: 72 h
How it was run: as §2

SK-BR-3 = assay: as above; conditions: incubation time: 72 h
How it was run: as §2

MFM-223 = assay: as above; conditions: incubation time: 72 h
How it was run: as §2

CAL-51 [5] = assay: as above; conditions: incubation time: 72 h
How it was run: as §2

MCF-10A = assay: as above; conditions: incubation time: 72 h
How it was run: as §2

MDA-MB-453 [6] = assay: as above; conditions: incubation time: 72 h
How it was run: as §2

CAL-148 = assay: as above; conditions: incubation time: 72 h
How it was run: as §2

BT-549 = assay: as above; conditions: incubation time: 72 h
How it was run: as §2

HCC1937 [7] = assay: as above; conditions: incubation time: 72 h
How it was run: as §2

MDA-MB-231 = assay: as above; conditions: incubation time: 72 h
How it was run: as §2

HCC1599 = assay: as above; conditions: incubation time: 72 h
How it was run: as §2

MDA-MB-436 = assay: as above; conditions: incubation time: 72 h
How it was run: as §2

MDA-MB-468 [8] = assay: as above; conditions: incubation time: 72 h
How it was run: as §2

HCC1937 [9] = conditions: 72 h
How it was run: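 After 72 h on 384-well plates pre-loaded with compound in 5 µl medium, breast cancer cell lines seeded in 20 µl were assayed for viability with 2.5 µl CellTiter-Blue at 37 °C for 2 h, read at 560/590 nm. Each plate was quality-checked by Z'-factor and normalised to vehicle and a positive kill control. EC50 comes from the fitted percent-inhibition dose-response curve, censored at the top concentration, and rows scoring zero for drug sensitivity were left out.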

BT-474 [10] = conditions: 72 h
How it was run: (§3)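 For viability and cell death testing, 384-well plates carried compound at 5 concentrations in 10-fold steps over a compound-specific 10,000-fold range, and breast cancer cell lines were seeded in 20 µl suspension. After 72 h incubation, cell death was read by CellTox Green fluorescence (485/520 nm) before viability was read by CellTiter-Glo luminescence. EC50 was fitted from the dose-response curves and censored at the top concentration. Normalisation on each plate was to 0.1 % DMSO and a positive kill control.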

MDA-MB-468 [11] = conditions: 72 h
How it was run: as §3

CAL-51 [12] = conditions: 72 h
How it was run: as §3

Row | SMILES | normalised viability (DU-4475 [1]) | normalised viability (MDA-MB-453 [2]) | normalised response (CAL-120) | normalised response (Hs578T) | normalised response (HCC1143) | normalised response (HDQ-P1) | normalised response (DU-4475 [3]) | normalised response (BT-474 [4]) | normalised response (CAL-85-1) | normalised response (SK-BR-3) | normalised response (MFM-223) | normalised response (CAL-51 [5]) | normalised response (MCF-10A) | normalised response (MDA-MB-453 [6]) | normalised response (CAL-148) | normalised response (BT-549) | normalised response (HCC1937 [7]) | normalised response (MDA-MB-231) | normalised response (HCC1599) | normalised response (MDA-MB-436) | normalised response (MDA-MB-468 [8]) | EC50, CellTiter-Blue viability (HCC1937 [9]) | EC50, CellTiter-Glo (BT-474 [10]) | EC50, CellTiter-Glo (MDA-MB-468 [11]) | EC50, CellTiter-Glo (CAL-51 [12])
1 | C=C(c1ccc(C(=O)O)cc1)c1cc2c(cc1C)C(C)(C)CCC2(C)C [Bexarotene] (10000 nM) | 116% | 86.7% | 112% | 80.8% | 101% | 106% | 100% | 82.1% | 101% | 72.1% | 95.1% | 98.3% | 82.8% | 110% | 79.9% | 99.9% | 96.6% | 105% | 59.5% | 95.9% | 110% |  |  |  | 
2 | CN(N=O)C(=O)N[C@@H](C=O)[C@@H](O)[C@H](O)[C@H](O)CO [Streptozocin] |  |  |  |  |  |  |  |  |  |  |  |  |  |  |  |  |  |  |  |  |  | 0.0853 µM |  |  | 
3 | C#Cc1cccc(Nc2ncnc3cc(OCCOC)c(OCCOC)cc23)c1 [Erlotinib] (10000 nM) | 84.5% | 55.1% | 79.8% | 85.8% | 79.7% | 66.1% | 101% | 75.9% | 40.2% | 48% | 78.1% | 77% | 30.9% | 90% | 69.7% | 75.4% | 76.4% | 83.4% | 92.7% | 79% | 59.1% |  |  |  | 
4 | N[C@@H](CSC(c1ccccc1)(c1ccccc1)c1ccccc1)C(=O)O [S-trityl-L-cysteine] (40000 nM) | 92.2% | 83.2% | 101% | 89.6% | 92.8% | 102% | 92.3% | 89.6% | 101% | 99% | 92% | 123% | 104% | 86.2% | 100% | 106% | 93.5% | 91.1% | 103% | 95.3% | 104% |  |  |  | 
5 | Cc1ccc(C(=O)Nc2ccc(CN3CCN(C)CC3)c(C(F)(F)F)c2)cc1C#Cc1cnc2cccnn12 [Ponatinib] (1000 nM) | 50.2% | 38.4% | 41.2% | 53.9% | 86% | 36.5% | 77.4% | 30.6% | 58% | 68.3% | 43.7% | 47% | 34.4% | 77.3% | 85.4% | 36% | 60.6% | 15.5% | 108% | 64.7% | 69.2% |  |  |  | 
6 | Cc1ccc(-n2nc(C(C)(C)C)cc2NC(=O)Nc2ccc(OCCN3CCOCC3)c3ccccc23)cc1 [Doramapimod] (10000 nM) | 102% | 62.7% | 94.8% | 97.8% | 91.3% | 82.3% | 92.7% | 80.3% | 96.1% | 69.5% | 70.2% | 105% | 94.2% | 82.9% | 75.7% | 104% | 77.7% | 87.5% | 68.7% | 99.7% | 72.5% |  |  |  | 
7 | CN(C)/N=N/c1[nH]cnc1C(N)=O [Dacarbazine] (10000 nM) | 103% | 105% | 86% | 100% | 109% | 93.4% | 107% | 102% | 101% | 111% | 103% | 135% | 102% | 99.9% | 103% | 99.4% | 96.5% | 111% | 109% | 108% | 99.8% |  |  |  | 
8 | COc1cc2ncnc(Nc3ccc(F)c(Cl)c3)c2cc1NC(=O)/C=C/CN1CCCCC1 [Dacomitinib] |  |  |  |  |  |  |  |  |  |  |  |  |  |  |  |  |  |  |  |  |  |  | > 1 µM | 0.179 µM | 
9 | CC1(C)NC(=O)N(c2ccc([N+](=O)[O-])c(C(F)(F)F)c2)C1=O [Nilutamide] |  |  |  |  |  |  |  |  |  |  |  |  |  |  |  |  |  |  |  |  |  |  |  |  | 0.724 µM
